Laboratory results reported in patent US12509454B2, “Thiadiazolyl derivatives” (IDEAYA Biosciences, Inc., priority 2019, dated 2025).

Molecular target: Pol theta (1-899) (Homo sapiens (Human), UniProt O75417)
Assay: Pol theta ATPase activity, NADH oxidation-coupled enzymatic assay
Format: biochemical
Conditions: Pol theta (1-899) 10 nM, ATP, dT50 ssDNA, absorbance 340 nm, 10-point dilution series; read-out: ATPase NADH coupling:Standard Screening:hPolQ IC50
Experimental: The ability of the compounds of Formula (I) to inhibit ATPase activity of Pol theta (1-899) was determined using the assay described below.
Pol Theta ATPase activity was determined by measuring the rate of ATP turn over in a NADH oxidation-coupled enzymatic assay. 10-point dilution series of compounds were used in a 384 well format for the inhibition assays. Pol theta (1-899) (10 nM) in assay buffer (20 mM Tris HCl (pH 7.80), 80 mM KCl, 10 mM MgCl2, 1 mM DTT, 0.01% BSA, 0.01% Tween, 5% glycerol) was transferred to the test wells (20 μL), except the low control wells (20 μL of assay buffer was added to the low control wells). The plate was then incubated at room temperature for 15 min. An equal volume (20 μL) of 100 μM ATP, 300 nM dT50 (single-stranded DNA (ssDNA) containing 50 thymine bases), 300 μM NADH, 6 mM PEP, 10 U/mL lactate dehydrogenase and 20 U/mL pyruvate kinase in assay buffer was added to all the test wells. The plate was then centrifuged at 1000 rpm for 1 min. The reaction was monitored for 30 min by measuring absorbance (λ=340 nm) in a Tecan Spark multimode plate reader every minute. The high control (DMSO with enzyme) with low absorbance intensity represents no inhibition of ATPase reaction while the low control (DMSO with buffer) with high absorbance intensity represents full inhibition of ATPase activity. Slope of the reaction progress curves were used to calculate the rate of ATP hydrolysis. The rates were used to determine the percent inhibition using a four-parameter inhibition model to generate IC50, Hill slope and max inhibition.

Chain of Pol theta (1-899) (O75417 1-899): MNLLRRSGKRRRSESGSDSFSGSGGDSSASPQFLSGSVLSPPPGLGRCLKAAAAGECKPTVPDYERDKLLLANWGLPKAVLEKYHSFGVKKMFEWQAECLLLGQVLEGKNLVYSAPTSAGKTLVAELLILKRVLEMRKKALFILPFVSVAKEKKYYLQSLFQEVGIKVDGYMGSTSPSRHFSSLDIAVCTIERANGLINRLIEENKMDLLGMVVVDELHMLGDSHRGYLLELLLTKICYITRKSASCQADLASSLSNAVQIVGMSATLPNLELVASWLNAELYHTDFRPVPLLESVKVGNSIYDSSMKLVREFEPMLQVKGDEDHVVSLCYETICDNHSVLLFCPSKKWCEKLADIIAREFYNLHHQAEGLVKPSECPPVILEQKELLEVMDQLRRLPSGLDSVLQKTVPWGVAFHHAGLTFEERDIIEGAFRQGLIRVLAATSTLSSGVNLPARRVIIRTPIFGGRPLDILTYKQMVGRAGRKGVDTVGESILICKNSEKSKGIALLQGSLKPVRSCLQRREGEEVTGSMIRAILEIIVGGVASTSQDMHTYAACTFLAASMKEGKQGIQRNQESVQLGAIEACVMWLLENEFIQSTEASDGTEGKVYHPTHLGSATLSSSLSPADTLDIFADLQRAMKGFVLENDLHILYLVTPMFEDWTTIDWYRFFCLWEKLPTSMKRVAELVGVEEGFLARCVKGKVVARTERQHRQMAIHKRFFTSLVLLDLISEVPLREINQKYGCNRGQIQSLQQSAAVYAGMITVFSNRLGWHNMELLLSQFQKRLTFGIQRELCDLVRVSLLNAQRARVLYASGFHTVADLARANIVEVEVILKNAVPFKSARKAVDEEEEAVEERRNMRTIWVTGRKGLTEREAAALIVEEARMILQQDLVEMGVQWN

| IC50 [µM] | SMILES |
| --- | --- |
| ≤ 0.2 | O=C(Nc1nnc(OCc2ccc(Cl)cc2)s1)c1ccncc1[C@@]12CCOC[C@@H]1C2 (mixture of isomers) [Example 175, 3-((1R,6S)-3-oxabicyclo[4.1.0]heptan-6-yl)-N-(5-((4-chlorobenzyl)oxy)-1,3,4-thiadiazol-2-yl)isonicotinamide and 3-((1S,6R)-3-oxabicyclo[4.1.0]heptan-6-yl)-N-(5-((4-chlorobenzyl)oxy)-1,3,4-thiadiazol-2-yl)isonicotinamide] |
| 0.2 to 0.5 | CC1COCCN1c1ncccc1C(=O)Nc1nnc(OCc2ccc(Cl)cc2)s1 (racemic) [Example 5, (R) N-(5-((4-chlorobenzyl)oxy)-1,3,4-thiadiazol-2-yl)-2-(3-methylmorpholino)-nicotinamide and (S)—N-(5-((4-chlorobenzyl)oxy)-1,3,4-thiadiazol-2-yl)-2-(3-methylmorpholino)nicotinamide] |
| 0.2 to 0.5 | CC1CN(c2ncccc2C(=O)Nc2nnc(OCc3ccc(Cl)cc3)s2)CCO1 (racemic) [Example 7, (R)—N-(5-((4-chlorobenzyl)oxy)-1,3,4-thiadiazol-2-yl)-2-(2-methylmorpholino)nicotinamide and (S)—N-(5-((4-chlorobenzyl)oxy)-1,3,4-thiadiazol-2-yl)-2-(2-methylmorpholino)nicotinamide] |
| 0.2 to 0.5 | CC1CN(c2ncccc2C(=O)Nc2nnc(OCc3ccc(Cl)cc3)s2)CC(=O)N1 (racemic) [Example 46, (R) N-(5-((4-chlorobenzyl)oxy)-1,3,4-thiadiazol-2-yl)-2-(3-methyl-5-oxopiperazin-1-yl)nicotinamide and (S) N-(5-((4-chlorobenzyl)oxy)-1,3,4-thiadiazol-2-yl)-2-(3-methyl-5-oxopiperazin-1-yl)nicotinamide] |
| 0.2 to 0.5 | CC1C(=O)NCCN1c1ncccc1C(=O)Nc1nnc(OCc2ccc(Cl)cc2)s1 (racemic) [Example 52, (R) N-(5-((4-chlorobenzyl)oxy)-1,3,4-thiadiazol-2-yl)-2-(2-methyl-3-oxopiperazin-1-yl)nicotinamide and (S) N-(5-((4-chlorobenzyl)oxy)-1,3,4-thiadiazol-2-yl)-2-(2-methyl-3-oxopiperazin-1-yl)nicotinamide] |
| 0.5 to 1 | O=C(Nc1nnc(OCc2ccc(Cl)cc2)s1)c1cccnc1N1CCN2C(=O)CCC2C1 (racemic) [Example 57, (R) N-(5-((4-chlorobenzyl)oxy)-1,3,4-thiadiazol-2-yl)-2-(6-oxohexahydropyrrolo[1,2-a]pyrazin-2(1H)-yl)nicotinamide and (S) N-(5-((4-chlorobenzyl)oxy)-1,3,4-thiadiazol-2-yl)-2-(6-oxohexahydropyrrolo[1,2-a]pyrazin-2(1H)-yl)nicotinamide] |
| ≤ 0.2 | CC1CNC(=O)CN1c1ncccc1C(=O)Nc1nnc(OCc2ccc(Cl)cc2)s1 (racemic) [Example 60, (R) N-(5-((4-chlorobenzyl)oxy)-1,3,4-thiadiazol-2-yl)-2-(2-methyl-5-oxopiperazin-1-yl)nicotinamide and (S) N-(5-((4-chlorobenzyl)oxy)-1,3,4-thiadiazol-2-yl)-2-(2-methyl-5-oxopiperazin-1-yl)nicotinamide] |
| 0.2 to 0.5 | COc1ccccc1-c1cc([C@@H](C)O)ncc1C(=O)Nc1nnc(OCc2ccc(Cl)cc2)s1 (racemic) [Example 167, N-[5-[(4-chlorophenyl)methoxy]-1,3,4-thiadiazol-2-yl]-6-(1-hydroxyethyl)-4-(2-methoxyphenyl)pyridine-3-carboxamide] |
| ≤ 0.2 | C[C@@H]1C(=O)NCCN1c1cnccc1C(=O)Nc1nnc(OCc2ccc(Cl)cn2)s1 (racemic) [Example 179, (S)—N-(5-((5-chloropyridin-2-yl)methoxy)-1,3,4-thiadiazol-2-yl)-3-(2-methyl-3-oxopiperazin-1-yl)isonicotinamide and (R)—N-(5-((5-chloropyridin-2-yl)methoxy)-1,3,4-thiadiazol-2-yl)-3-(2-methyl-3-oxopiperazin-1-yl)isonicotinamide] |
| 1 to 10 | O=C(Nc1nnc(OCc2ccc(Cl)cc2)s1)c1cccnc1N1CCN2C(=O)CC[C@H]2C1 (single isomer, unassigned) [Example 69, (R)—N-(5-((4-chlorobenzyl)oxy)-1,3,4-thiadiazol-2-yl)-2-(6-oxohexahydropyrrolo[1,2-a]pyrazin-2(1H)-yl)nicotinamide or (S)—N-(5-((4-chlorobenzyl)oxy)-1,3,4-thiadiazol-2-yl)-2-(6-oxohexahydropyrrolo[1,2-a]pyrazin-2(1H)-yl)nicotinamide] |
| 0.5 to 1 | O=C(Nc1nnc(OCc2ccc(Cl)cc2)s1)c1cccnc1N1CCN2C(=O)CC[C@@H]2C1 (single isomer, unassigned) [Example 70, (R)—N-(5-((4-chlorobenzyl)oxy)-1,3,4-thiadiazol-2-yl)-2-(6-oxohexahydropyrrolo-[1,2-a]pyrazin-2(1H)-yl)nicotinamide or (S)—N-(5-((4-chlorobenzyl)oxy)-1,3,4-thiadiazol-2-yl)-2-(6-oxohexahydropyrrolo[1,2-a]pyrazin-2(1H)-yl)nicotinamide] |
| 1 to 10 | O=C(Nc1nnc(OCc2ccc(F)cc2)s1)c1cccnc1N1CCOCC1 [Example 1, N-(5-((4-fluorobenzyl)oxy)-1,3,4-thiadiazol-2-yl)-2-morpholinonicotinamide] |
| 0.5 to 1 | O=C(Nc1nnc(OCc2ccc(Cl)cc2)s1)c1cccnc1N1CCOCC1 [Example 2, N-(5-((4-chlorobenzyl)oxy)-1,3,4-thiadiazol-2-yl)-2-morpholinonicotinamide] |
| 1 to 10 | O=C(Nc1nnc(OCc2ccc(Cl)cn2)s1)c1cccnc1N1CCOCC1 [Example 3] |
| 0.5 to 1 | O=C(Nc1nnc(OCc2ccc(Cl)cc2)s1)c1cncn1-c1ccccc1 [Example 4, N-(5-((4-chlorobenzyl)oxy)-1,3,4-thiadiazol-2-yl)-1-phenyl-1H-imidazole-5-carboxamide] |
| 0.2 to 0.5 | O=C(Nc1nnc(OCc2ccc(Cl)cc2)s1)c1cccnc1N1CCCOCC1 [Example 6, N-(5-((4-chlorobenzyl)oxy)-1,3,4-thiadiazol-2-yl)-2-(1,4-oxazepan-4-yl)nicotinamide] |
| 1 to 10 | O=C(Nc1nnc(OCc2ccc(Cl)nc2)s1)c1cccnc1N1CCOCC1 [Example 8, N-(5-((6-chloropyridin-3-yl)methoxy)-1,3,4-thiadiazol-2-yl)-2-morpholinonicotinamide] |
| 0.2 to 0.5 | C[C@@H]1COCCN1c1ncccc1C(=O)Nc1nnc(OCc2ccc(Cl)cc2)s1 [Example 9, (R)—N-(5-((4-chlorobenzyl)oxy)-1,3,4-thiadiazol-2-yl)-2-(3-methylmorpholino)nicotinamide] |
| 0.5 to 1 | C[C@H]1COCCN1c1ncccc1C(=O)Nc1nnc(OCc2ccc(Cl)cc2)s1 [Example 10, (S)—N-(5-((4-chlorobenzyl)oxy)-1,3,4-thiadiazol-2-yl)-2-(3-methyl-morpholino)nicotinamide] |
| 1 to 10 | O=C(Nc1nnc(OCc2ccc(Cl)cc2)s1)c1cccnc1-n1cnnn1 [Example 11, N-(5-((4-chlorobenzyl)oxy)-1,3,4-thiadiazol-2-yl)-2-(1H-tetrazol-1-yl)nicotinamide] |
| 0.2 to 0.5 | COc1ccc(-n2cncc2C(=O)Nc2nnc(OCc3ccc(Cl)cc3)s2)cc1 [Example 12, N-(5-((4-chlorobenzyl)oxy)-1,3,4-thiadiazol-2-yl)-1-(4-methoxyphenyl)-1H-imidazole-5-carboxamide] |
| 0.2 to 0.5 | O=C(Nc1nnc(OCc2ccc(Cl)cc2)s1)c1cncnc1N1CCOCC1 [Example 13, N-(5-((4-chlorobenzyl)oxy)-1,3,4-thiadiazol-2-yl)-4-morpholinopyrimidine-5-carboxamide] |
| ≤ 0.2 | N#Cc1ccc(C(=O)Nc2nnc(OCc3ccc(Cl)cc3)s2)c(N2CCOCC2)n1 [Example 14, N-(5-((4-chlorobenzyl)oxy)-1,3,4-thiadiazol-2-yl)-6-cyano-2-morpholinonicotinamide] |
| 1 to 10 | O=C(Nc1nnc(OCc2ccc(Br)cn2)s1)c1cccnc1N1CCOCC1 [Example 15] |
| 1 to 10 | CC(=O)N1CCN(c2ncccc2C(=O)Nc2nnc(OCc3ccc(Cl)cc3)s2)CC1 [Example 16, 2-(4-acetylpiperazin-1-yl)-N-(5-((4-chlorobenzyl)oxy)-1,3,4-thiadiazol-2-yl)nicotinamide] |
| 0.5 to 1 | O=C(Nc1nnc(OCc2ccc(Cl)cc2)s1)c1cncn1-c1cccnc1 [Example 17, N-(5-((4-chlorobenzyl)oxy)-1,3,4-thiadiazol-2-yl)-1-(pyridin-3-yl)-1H-imidazole-5-carboxamide] |
| 0.5 to 1 | O=C(Nc1nnc(OCc2ccc(Cl)cc2)s1)c1cncn1-c1ccncc1 [Example 18, N-(5-((4-chlorobenzyl)oxy)-1,3,4-thiadiazol-2-yl)-1-(pyridin-4-yl)-1H-imidazole-5-carboxamide] |
| 1 to 10 | O=C(Nc1nnc(OCc2cnc(Cl)cn2)s1)c1cccnc1N1CCOCC1 [Example 19, N-[5-[(5-chloropyrazin-2-yl)methoxy]-1,3,4-thiadiazol-2-yl]-2-(morpholin-4-yl)pyridine-3-carboxamide] |
